Experimental data taken from patent US20180008587A1, “THIOHYDANTOIN ANDROGEN RECEPTOR ANTAGONISTS FOR THE TREATMENT OF CANCER” (Jaressen Pharmaceutica NV, priority 2016, published 2018).
Numbering of substitutions follows the chain as printed. Like-named read-outs stand apart in the source and are kept apart here.

Experiments:
Format in all cases: cell-based
[1] = target: T1, F876L mutant Androgen Receptor (AR-F876L) (Homo sapiens, UniProt P10275, F877L); experiment: LNCaP-AR-F876L AG reporter assay (ARE firefly luciferase, agonist mode); conditions: for Emax: read-out: LNCaP-AR-F876L AG MAX % Stim
T1 construct: expressed in transfected cells; host or cells: LNCaP (LNCaP F876L)
T1 sequence (P10275 1-920 F877L): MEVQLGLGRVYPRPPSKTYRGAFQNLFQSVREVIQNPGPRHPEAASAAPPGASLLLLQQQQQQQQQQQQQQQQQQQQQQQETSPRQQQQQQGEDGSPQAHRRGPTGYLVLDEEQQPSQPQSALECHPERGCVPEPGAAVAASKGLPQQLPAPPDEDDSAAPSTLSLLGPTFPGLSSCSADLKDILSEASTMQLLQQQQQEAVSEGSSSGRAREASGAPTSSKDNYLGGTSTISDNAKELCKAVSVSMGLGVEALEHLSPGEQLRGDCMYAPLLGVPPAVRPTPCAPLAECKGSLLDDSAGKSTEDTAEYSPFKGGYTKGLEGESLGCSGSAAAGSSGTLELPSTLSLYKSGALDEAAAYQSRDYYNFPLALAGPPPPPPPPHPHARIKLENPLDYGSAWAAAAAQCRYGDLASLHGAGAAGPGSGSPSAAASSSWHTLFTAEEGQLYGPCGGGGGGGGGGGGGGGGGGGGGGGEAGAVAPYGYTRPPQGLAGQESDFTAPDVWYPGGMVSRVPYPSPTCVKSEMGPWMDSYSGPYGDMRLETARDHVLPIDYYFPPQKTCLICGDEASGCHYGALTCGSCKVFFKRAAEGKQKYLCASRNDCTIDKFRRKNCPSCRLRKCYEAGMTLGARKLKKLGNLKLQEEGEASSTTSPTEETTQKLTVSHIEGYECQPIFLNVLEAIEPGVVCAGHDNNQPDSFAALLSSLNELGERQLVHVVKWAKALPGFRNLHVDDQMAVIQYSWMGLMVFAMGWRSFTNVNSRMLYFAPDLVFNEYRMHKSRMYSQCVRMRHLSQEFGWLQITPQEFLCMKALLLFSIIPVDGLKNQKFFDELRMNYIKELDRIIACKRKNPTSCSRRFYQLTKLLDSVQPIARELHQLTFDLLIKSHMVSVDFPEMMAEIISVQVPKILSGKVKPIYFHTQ
In short: (§1)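 Read-out is luciferase luminescence taken 1 h after Steady-Glo addition, following 20-24 h compound exposure at 37 °C in LNCaP pools stably carrying wild-type or F876L AR. Cells were grown in charcoal-stripped serum. Antagonist wells received agonist at 400 pM (WT) or 600 pM (F876L).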

[2] = target: T2, wild-type Androgen Receptor (AR-wt) (Homo sapiens, UniProt P10275); experiment: LNCaP-AR-wt AG reporter assay (ARE firefly luciferase, agonist mode); conditions: for Emax: read-out: LNCaP-AR-wt AG MAX % Stim
T2 construct: expressed in transfected cells; host or cells: LNCaP (LNCaP AR (cs))
T2 sequence (P10275 1-920): T1 sequence (P10275 1-920 F877L) with L877F
In short: as §1

[3] = target: T1, F876L mutant Androgen Receptor (AR-F876L); experiment: LNCaP-AR-F876L ANT reporter assay (ARE firefly luciferase, antagonist mode); conditions: for Emax: read-out: LNCaP-AR-F876L ANT MAX % Inh; for IC50: read-out: LNCaP-AR-F876L ANT pIC50 (converted)
In short: (§2)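 Puromycin-selected pooled LNCaP populations expressing AR-wt or AR-F876L are seeded in CSS medium and treated with compound for 20-24 h at 37 °C. For antagonist testing, agonist is added at 400 pM (WT) or 600 pM (F876L). Potency values derive from least-squares fitting of luminescence RLU.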

[4] = target: T2, wild-type Androgen Receptor (AR-wt); experiment: LNCaP-AR-wt ANT reporter assay (ARE firefly luciferase, antagonist mode); conditions: for IC50: antagonist mode, 400 pM R-1881 challenge, −Log10(IC50 [Molar]), read-out: LNCaP-AR-wt ANT pIC50 (converted); for Emax: read-out: LNCaP-AR-wt ANT MAX % Inh
In short: as §2

[5] = agonist mode, −Log10(EC50 [Molar]), read-out: LNCaP-AR-F876L AG pEC50 (converted)
[6] = maximum % stimulation (agonist response) over tested concentration range
[7] = agonist mode, −Log10(EC50 [Molar]), read-out: LNCaP-AR-wt AG pEC50 (converted)
[8] = maximum % inhibition of R1881 control response over tested concentration range

EC50 [1, 5] [nM] | Emax [1, 6] [%] | EC50 [2, 7] [nM] | Emax [2, 6] [%] | Emax [3, 8] [%] | IC50 [3] [nM] | IC50 [4] [nM] | Emax [4, 8] [%] | SMILES | EC50 [1] [nM] | Emax [1] [%] | EC50 [2] [nM] | Emax [2] [%] | Emax [3] [%] | Emax [4] [%]
> 15100 | 2.7 | > 15100 | 1.1 | 97 | 331 | 355 | 100 | N#Cc1ncc(N2C(=O)C3(CCC3)N(c3ccc(OC4CCOCC4)cc3)C2=S)cc1C(F)(F)F [Cpd 112, 5-[5-oxo-8-(4-tetrahydropyran-4-yloxyphenyl)-7-thioxo-6,8-diazaspiro[3.4]octan-6-yl]-3-(trifluoromethyl)pyridine-2-carbonitrile] | – | – | – | – | – | –
> 15100 | 3.1 | > 15100 | 25.3 | 98.2 | 871 | 1170 | 97.4 | Cc1cc(N2C(=O)C3(CCC3)N(c3ccc(C(=O)Nc4cncc(F)c4)c(F)c3)C2=S)cnc1C#N [Cpd 113, 4-[6-(6-cyano-5-methyl-3-pyridyl)-5-oxo-7-thioxo-6,8-diazaspiro[3.4]octan-8-yl]-2-fluoro-N-(5-fluoro-3-pyridyl)benzamide] | – | – | – | – | – | –
> 15100 | 3.4 | > 15100 | 1.1 | 96.1 | 437 | 372 | 100 | Cc1ccc(N2C(=S)N(c3cnc(C#N)c(C(F)(F)F)c3)C(=O)C23CCC3)cc1F [Cpd 115, 5-[8-(3-fluoro-4-methyl-phenyl)-5-oxo-7-thioxo-6,8-diazaspiro[3.4]octan-6-yl]-3-(trifluoromethyl)pyridine-2-carbonitrile] | – | – | – | – | – | –
> 15100 | 3.5 | > 15100 | 1.1 | 98.6 | 631 | 2570 | 95.3 | Cc1cc(N2C(=O)C3(CCC3)N(c3ccc(OC4CCN(C)CC4)c(F)c3)C2=S)cnc1C#N [Cpd 116, 5-[8-[3-fluoro-4-[(1-methyl-4-piperidyl)oxy]phenyl]-5-oxo-7-thioxo-6,8-diazaspiro[3.4]octan-6-yl]-3-methyl-pyridine-2-carbonitrile] | – | – | – | – | – | –
> 15100 | 3.5 | > 15100 | 0.7 | 96.4 | 288 | 1260 | 100 | CNC(=O)c1ccc(N2C(=S)N(c3cnc(C#N)c(C)c3)C(=O)C23CCC3)cc1OC [Cpd 117, 4-[6-(6-cyano-5-methyl-3-pyridyl)-5-oxo-7-thioxo-6,8-diazaspiro[3.4]octan-8-yl]-2-methoxy-N-methyl-benzamide] | – | – | – | – | – | –

Second part, the molecule before the results:

SMILES | EC50 [1, 5] [nM] | Emax [1, 6] [%] | EC50 [2, 7] [nM] | Emax [2, 6] [%] | Emax [3, 8] [%] | IC50 [3] [nM] | IC50 [4] [nM] | Emax [4, 8] [%] | EC50 [1] [nM] | Emax [1] [%] | EC50 [2] [nM] | Emax [2] [%] | Emax [3] [%] | Emax [4] [%]
N#Cc1ncc(N2C(=O)C3(CCC3)N(c3cccc(F)c3F)C2=S)cc1C(F)(F)F [Cpd 106, 5-[8-(2,3-difluorophenyl)-5-oxo-7-thioxo-6,8-diazaspiro[3.4]octan-6-yl]-3-(trifluoromethyl)pyridine-2-carbonitrile] | > 15100 | 2.4 | > 15100 | 1.8 | 95.9 | 631 | 617 | 101 | – | – | – | – | – | –
N#Cc1ncc(N2C(=O)C3(CCC3)N(c3ccc(Oc4ncccn4)cc3)C2=S)cc1C(F)(F)F [Cpd 107, 5-[5-oxo-8-(4-pyrimidin-2-yloxyphenyl)-7-thioxo-6,8-diazaspiro[3.4]octan-6-yl]-3-(trifluoromethyl)pyridine-2-carbonitrile] | > 15100 | 2.4 | > 15100 | 2.1 | 97.3 | 162 | 562 | 89.1 | – | – | – | – | – | –
CN1CCN(CCCNC(=O)c2ccc(N3C(=S)N(c4cnc(C#N)c(C(F)(F)F)c4)C(=O)C34CCC4)cc2F)CC1 [Cpd 108, 4-[6-[6-cyano-5-(trifluoromethyl)-3-pyridyl]-5-oxo-7-thioxo-6,8-diazaspiro[3.4]octan-8-yl]-2-fluoro-N-[3-(4-methylpiperazin-1-yl)propyl]benzamide] | > 15100 | 2.5 | > 15100 | 2.3 | 95.6 | 389 | 813 | 94.5 | – | – | – | – | – | –
CN1CCC(NC(=O)c2ccc(N3C(=S)N(c4cnc(C#N)c(C(F)(F)F)c4)C(=O)C34CCC4)cc2F)CC1 [Cpd 109, 4-[6-[6-cyano-5-(trifluoromethyl)-3-pyridyl]-5-oxo-7-thioxo-6,8-diazaspiro[3.4]octan-8-yl]-2-fluoro-N-(1-methyl-4-piperidyl)benzamide] | > 15100 | 1.1 | > 15100 | 0.2 | 98.4 | 741 | 1950 | 97.9 | – | – | – | – | – | –
Cc1ccc(N2C(=S)N(c3cnc(C#N)c(C(F)(F)F)c3)C(=O)C2(C)C)cc1 [Cpd 110, 5-[4,4-dimethyl-5-oxo-3-(p-tolyl)-2-thioxo-imidazolidin-1-yl]-3-(trifluoromethyl)pyridine-2-carbonitrile] | > 15100 | 2.6 | > 15100 | 1.3 | 100 | 145 | 195 | 100 | – | – | – | – | – | –
C#CCNC(=O)c1ccc(N2C(=S)N(c3cnc(C#N)c(C(F)(F)F)c3)C(=O)C23CCC3)cc1F [Cpd 111, 4-[6-[6-cyano-5-(trifluoromethyl)-3-pyridyl]-5-oxo-7-thioxo-6,8-diazaspiro[3.4]octan-8-yl]-2-fluoro-N-prop-2-ynyl-benzamide] | – | – | – | – | – | 525 | 407 | – | > 15100 | 2.7 | > 15100 | 0.5 | 94.1 | 102
Cc1cncc(-c2ccc(N3C(=S)N(c4cnc(C#N)c(C)c4)C(=O)C34CCC4)cc2)c1 [Cpd 114, 3-methyl-5-[8-[4-(5-methyl-3-pyridyl)phenyl]-5-oxo-7-thioxo-6,8-diazaspiro[3.4]octan-6-yl]pyridine-2-carbonitrile] | – | – | – | – | – | 355 | 240 | – | > 15100 | 3.3 | > 15100 | 0.7 | 97.8 | 98.7
